Laboratory results as given in PubChem BioAssay (NCI).
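Following 48 hours of exposure in 96-well plates, responses at five concentrations were used to interpolate endpoints linearly. TGI is the concentration that stops growth completely.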 Where a SMILES comes first, the peptide text is derived from it. The star is where a group is joined. Boc = CC(C)(C)OC(=O)*; OBn = c1ccc(CO*)cc1

Assays:
Experiment in all cases: DTP human tumour cell line panel, 48 h
ACHN renal = tested on: ACHN renal
MOLT-4 leukemia = tested on: MOLT-4 leukemia
NCI-H460 lung = tested on: NCI-H460 lung
SK-OV-3 ovarian = tested on: SK-OV-3 ovarian
SNB-75 CNS = tested on: SNB-75 CNS
SR leukemia = tested on: SR leukemia
DLD-1 colon = tested on: DLD-1 colon
DMS 114 small cell lung = tested on: DMS 114 small cell lung
DMS 273 small cell lung = tested on: DMS 273 small cell lung
KM20L2 colon = tested on: KM20L2 colon
LXFL 529 NSCLC = tested on: LXFL 529 NSCLC
M19-MEL melanoma = tested on: M19-MEL melanoma
HOP-18 NSCLC = tested on: HOP-18 NSCLC
SNB-78 CNS = tested on: SNB-78 CNS

SMILES: NC(CCC(=O)O)(CCC(=O)O)CCC(=O)O
- TGI (ACHN renal): > 100 µM
- TGI (MOLT-4 leukemia): > 100 µM
- TGI (NCI-H460 lung): > 100 µM
- TGI (SK-OV-3 ovarian): > 100 µM
- TGI (SNB-75 CNS): > 100 µM
- TGI (SR leukemia): > 100 µM

SMILES: COc1cccc(C2SCC(=O)N2c2ccc(-n3c(-c4ccccc4)nc4ccccc4c3=O)cc2)c1OC (centres undefined)
- TGI (ACHN renal): > 100 µM
- TGI (MOLT-4 leukemia): > 100 µM
- TGI (NCI-H460 lung): > 100 µM
- TGI (SK-OV-3 ovarian): > 100 µM
- TGI (SNB-75 CNS): > 100 µM
- TGI (SR leukemia): > 100 µM

SMILES: CCOC(=O)/C=C(\C(=O)OCC)n1ccc(=O)n(CC(=O)OCC)c1=O
- TGI (ACHN renal): 3.29 µM
- TGI (MOLT-4 leukemia): 4.62 µM
- TGI (NCI-H460 lung): 32.2 µM
- TGI (SK-OV-3 ovarian): 32.4 µM
- TGI (SNB-75 CNS): 24.5 µM
- TGI (SR leukemia): 5.27 µM

SMILES: COc1ccc(-c2cc(=O)c3cc4c(cc3[nH]2)OCO4)cc1
- TGI (ACHN renal): > 100 µM
- TGI (DLD-1 colon): > 100 µM
- TGI (DMS 114 small cell lung): > 100 µM
- TGI (DMS 273 small cell lung): > 100 µM
- TGI (KM20L2 colon): > 100 µM
- TGI (LXFL 529 NSCLC): > 100 µM
- TGI (M19-MEL melanoma): > 100 µM
- TGI (MOLT-4 leukemia): > 100 µM
- TGI (NCI-H460 lung): > 100 µM
- TGI (SNB-75 CNS): > 100 µM
- TGI (SR leukemia): > 100 µM

SMILES: c1ccc2c(c1)nc1n2C2CCC(C2)N1 (centres undefined)
- TGI (MOLT-4 leukemia): > 10 µM
- TGI (NCI-H460 lung): > 10 µM
- TGI (SK-OV-3 ovarian): > 10 µM
- TGI (SNB-75 CNS): > 10 µM
- TGI (SR leukemia): > 10 µM

SMILES: COc1cccc2nc3cc(C)c(C)cc3nc12
- TGI (ACHN renal): > 100 µM
- TGI (DLD-1 colon): > 100 µM
- TGI (DMS 114 small cell lung): > 100 µM
- TGI (DMS 273 small cell lung): > 100 µM
- TGI (HOP-18 NSCLC): > 100 µM
- TGI (KM20L2 colon): > 100 µM
- TGI (LXFL 529 NSCLC): > 100 µM
- TGI (M19-MEL melanoma): > 100 µM
- TGI (MOLT-4 leukemia): > 100 µM
- TGI (NCI-H460 lung): > 100 µM
- TGI (SK-OV-3 ovarian): > 100 µM
- TGI (SNB-75 CNS): > 100 µM
- TGI (SNB-78 CNS): > 100 µM
- TGI (SR leukemia): > 100 µM

SMILES: Oc1ccc(/C=C/c2ccc3cccc(O)c3n2)cc1O
- TGI (ACHN renal): 20.7 µM
- TGI (MOLT-4 leukemia): 21.5 µM
- TGI (NCI-H460 lung): 13.9 µM
- TGI (SK-OV-3 ovarian): > 100 µM
- TGI (SNB-75 CNS): 9.65 µM
- TGI (SR leukemia): 18.6 µM

SMILES: CC(=O)O[C@H]1CCn2c3c(c(C)c21)C(=O)C(N1CC1)=C(C)C3=O
- TGI (ACHN renal): > 10 µM
- TGI (MOLT-4 leukemia): > 10 µM
- TGI (NCI-H460 lung): > 10 µM
- TGI (SK-OV-3 ovarian): > 10 µM
- TGI (SNB-75 CNS): > 10 µM
- TGI (SR leukemia): > 10 µM

SMILES: NNCCc1n[nH]c(=O)n1N
- TGI (ACHN renal): > 100 µM
- TGI (MOLT-4 leukemia): > 100 µM
- TGI (NCI-H460 lung): > 100 µM
- TGI (SK-OV-3 ovarian): > 100 µM
- TGI (SNB-75 CNS): > 100 µM
- TGI (SR leukemia): > 100 µM

SMILES: CC(NC(=O)C(Cc1ccccc1)NC(=O)C(Cc1ccccc1)NC(=O)OC(C)(C)C)C(=O)OCc1ccccc1 (stereo not drawn) (Boc-Phe-Phe-Ala-OBn; configuration not given here)
- TGI (MOLT-4 leukemia): > 100 µM
- TGI (NCI-H460 lung): > 100 µM
- TGI (SK-OV-3 ovarian): > 100 µM
- TGI (SNB-75 CNS): > 100 µM
- TGI (SR leukemia): > 100 µM

SMILES: O=C1CCCCC/C1=C\c1ccc(Cl)cc1
- TGI (ACHN renal): > 100 µM
- TGI (MOLT-4 leukemia): 95.1 µM
- TGI (NCI-H460 lung): > 100 µM
- TGI (SK-OV-3 ovarian): > 100 µM
- TGI (SNB-75 CNS): 81.3 µM
- TGI (SR leukemia): > 100 µM

SMILES: c1ccc2cc(CNCCOCCOCCNCc3ccc4ccccc4c3)ccc2c1
- TGI (ACHN renal): 3.26 µM
- TGI (MOLT-4 leukemia): 4.49 µM
- TGI (NCI-H460 lung): 3.24 µM
- TGI (SK-OV-3 ovarian): 8.62 µM
- TGI (SNB-75 CNS): 4.12 µM
- TGI (SR leukemia): 5.45 µM

SMILES: NC(=O)NC(=O)c1cccc(NC(=O)CF)c1
- TGI (ACHN renal): > 100 µM
- TGI (MOLT-4 leukemia): > 100 µM
- TGI (NCI-H460 lung): > 100 µM
- TGI (SK-OV-3 ovarian): > 100 µM
- TGI (SNB-75 CNS): > 100 µM
- TGI (SR leukemia): > 100 µM

SMILES: CC(C)(C)[Si](C)(C)OCCOCn1cc(F)c(=O)[nH]c1=O
- TGI (ACHN renal): > 100 µM
- TGI (MOLT-4 leukemia): > 100 µM
- TGI (NCI-H460 lung): > 100 µM
- TGI (SK-OV-3 ovarian): > 100 µM
- TGI (SNB-75 CNS): > 100 µM
- TGI (SR leukemia): > 100 µM

SMILES: CC(C)CC(NC(=O)C(CCI)Cc1ccccc1)C(=O)Nc1ccccc1 (centres undefined)
- TGI (ACHN renal): > 100 µM
- TGI (MOLT-4 leukemia): 83.6 µM
- TGI (NCI-H460 lung): > 100 µM
- TGI (SK-OV-3 ovarian): > 100 µM
- TGI (SNB-75 CNS): > 100 µM
- TGI (SR leukemia): > 100 µM

SMILES: CC(C)C12C=CC(C)(CC1)n1c(=O)c3cc4ccccc4cc3c(=O)n12 (centres undefined)
- TGI (ACHN renal): > 100 µM
- TGI (DLD-1 colon): > 100 µM
- TGI (DMS 114 small cell lung): > 100 µM
- TGI (DMS 273 small cell lung): > 100 µM
- TGI (KM20L2 colon): > 100 µM
- TGI (LXFL 529 NSCLC): > 100 µM
- TGI (M19-MEL melanoma): > 100 µM
- TGI (MOLT-4 leukemia): > 100 µM
- TGI (NCI-H460 lung): > 100 µM
- TGI (SK-OV-3 ovarian): > 100 µM
- TGI (SNB-75 CNS): > 100 µM
- TGI (SNB-78 CNS): > 100 µM
- TGI (SR leukemia): > 100 µM

SMILES: CC(C)C1COC(c2cccc(C3=N[C@@H](C(C)C)CO3)n2)=N1 (some centres undefined)
- TGI (ACHN renal): > 100 µM
- TGI (DLD-1 colon): > 100 µM
- TGI (DMS 114 small cell lung): > 100 µM
- TGI (DMS 273 small cell lung): > 100 µM
- TGI (KM20L2 colon): > 100 µM
- TGI (LXFL 529 NSCLC): > 100 µM
- TGI (M19-MEL melanoma): > 100 µM
- TGI (MOLT-4 leukemia): > 100 µM
- TGI (NCI-H460 lung): > 100 µM
- TGI (SK-OV-3 ovarian): > 100 µM
- TGI (SNB-75 CNS): > 100 µM
- TGI (SNB-78 CNS): > 100 µM
- TGI (SR leukemia): > 100 µM

SMILES: CC12c3c4cc(Br)cc3Oc3cc(Br)cc(c31)Oc1cc(Br)cc(c12)O4
- TGI (ACHN renal): > 100 µM
- TGI (MOLT-4 leukemia): > 100 µM
- TGI (NCI-H460 lung): > 100 µM
- TGI (SK-OV-3 ovarian): > 100 µM
- TGI (SNB-75 CNS): 31.3 µM
- TGI (SR leukemia): > 100 µM

SMILES: O=c1c2cn[nH]c2nc2scc(-c3ccc(Cl)cc3)n12
- TGI (ACHN renal): > 100 µM
- TGI (MOLT-4 leukemia): > 100 µM
- TGI (NCI-H460 lung): > 100 µM
- TGI (SK-OV-3 ovarian): > 100 µM
- TGI (SNB-75 CNS): > 100 µM
- TGI (SR leukemia): > 100 µM

SMILES: CCN(CC)C(=S)N=Nc1c(O)[nH]c2ccccc12
- TGI (ACHN renal): 10.1 µM
- TGI (MOLT-4 leukemia): 2.93 µM
- TGI (NCI-H460 lung): 3.08 µM
- TGI (SK-OV-3 ovarian): 12.6 µM
- TGI (SNB-75 CNS): 11.2 µM
- TGI (SR leukemia): 4.91 µM

SMILES: O=C1NC(=O)C(COCc2ccccc2)C2=C1SCCC2 (centres undefined)
- TGI (ACHN renal): > 100 µM
- TGI (MOLT-4 leukemia): > 100 µM
- TGI (NCI-H460 lung): > 100 µM
- TGI (SNB-75 CNS): > 100 µM
- TGI (SR leukemia): > 100 µM

SMILES: CCC(=O)N(O)C(C)(C)C
- TGI (ACHN renal): > 100 µM
- TGI (DLD-1 colon): > 100 µM
- TGI (DMS 114 small cell lung): > 100 µM
- TGI (KM20L2 colon): > 100 µM
- TGI (LXFL 529 NSCLC): > 100 µM
- TGI (M19-MEL melanoma): > 100 µM
- TGI (MOLT-4 leukemia): > 100 µM
- TGI (NCI-H460 lung): > 100 µM
- TGI (SK-OV-3 ovarian): > 100 µM
- TGI (SNB-75 CNS): > 100 µM
- TGI (SNB-78 CNS): > 100 µM
- TGI (SR leukemia): > 100 µM

SMILES: O=c1oc2c(ccc3ccccc32)cc1C1=CSC2=NCCN12
- TGI (ACHN renal): > 100 µM
- TGI (MOLT-4 leukemia): > 100 µM
- TGI (NCI-H460 lung): > 100 µM
- TGI (SK-OV-3 ovarian): > 100 µM
- TGI (SNB-75 CNS): > 100 µM
- TGI (SR leukemia): > 100 µM

SMILES: CC1=N[C@](C)(C2CC3C=CC2C3=O)COC1=O (some centres undefined)
- TGI (ACHN renal): > 100 µM
- TGI (MOLT-4 leukemia): > 100 µM
- TGI (NCI-H460 lung): > 100 µM
- TGI (SK-OV-3 ovarian): > 100 µM
- TGI (SNB-75 CNS): > 100 µM
- TGI (SR leukemia): > 100 µM
